# Data from PMC6002460, “Pharmacological evaluation of new constituents of “Spice”: synthetic cannabinoids based on indole, indazole, benzimidazole and carbazole scaffolds” (Forensic Toxicology, 2018).
# Entries after “also recorded” stand apart in the source; their conditions may differ. Like-named read-outs stand apart in the source and are kept apart here.
# What was measured:
# CB1 receptor [1] = details: cited from earlier work
# CB2 receptor [2] = details: cited from earlier work
# human CB1 receptor [3] = molecular target: T1, human CB1 receptor (Homo sapiens, UniProt P21554); test: biochemical; format: binding; details: [3H]CP55,940 0.1 nM, CHO cell membranes; read-out: Ki ± SEM Human CB1
# T1 construct: expressed in transfected cells; host or cells: CHO cells (membrane preparations)
# human GPR55 = molecular target: T2, human GPR55 (Homo sapiens, UniProt Q9Y2T6); test: β-Arrestin PathHunter assay, recombinant CHO cells expressing GPR55; format: cell-based; details: for Human GPR55 % activation / Human GPR55 % inhibition: value in parentheses; for Human GPR55 % inhibition: antagonist mode versus LPI 1 µM
# T2 construct: host or cells: CHO cells
# Procedure: (§1) β-Arrestin assays were performed in recombinant CHO cells expressing either the human GPR18 or the human GPR55 as described before using the β-galactosidase enzyme fragment complementation technology (β-arrestin PathHunter™ assay; DiscoverX, Fremont, CA, USA).
# (§2) The orphan receptors GPR18 and GPR55 can interact with certain natural and synthetic cannabinoids. […] Therefore, we investigated the new series of indole, indazole, benzimidazole and carbazole-derived structures in β-arrestin assays at GPR18 and GPR55 (Table 2). […] For the lipophilic substitutions, the following rank order of potency was observed: ethyl > methyl > chloro > fluoro. Therefore, it can be concluded that a lipophilic substitution in position 4 of the naphthyl residue was a requirement for GPR55 inhibition.
# CB1 receptor [4] = molecular target: CB1 receptor; set-up: method as in Buchler et al. [37]; details: versus 0.5 nM [3H]CP55,940; ref Buchler et al. [37]; cited from earlier work
# human GPR18 = molecular target: T3, human GPR18 (Homo sapiens, UniProt Q14330); test: β-Arrestin PathHunter assay, recombinant CHO cells expressing GPR18; format: cell-based; details: for Human GPR18 % activation / Human GPR18 % inhibition: value in parentheses
# T3 construct: host or cells: CHO cells
# T3 sequence (Q14330 1-331): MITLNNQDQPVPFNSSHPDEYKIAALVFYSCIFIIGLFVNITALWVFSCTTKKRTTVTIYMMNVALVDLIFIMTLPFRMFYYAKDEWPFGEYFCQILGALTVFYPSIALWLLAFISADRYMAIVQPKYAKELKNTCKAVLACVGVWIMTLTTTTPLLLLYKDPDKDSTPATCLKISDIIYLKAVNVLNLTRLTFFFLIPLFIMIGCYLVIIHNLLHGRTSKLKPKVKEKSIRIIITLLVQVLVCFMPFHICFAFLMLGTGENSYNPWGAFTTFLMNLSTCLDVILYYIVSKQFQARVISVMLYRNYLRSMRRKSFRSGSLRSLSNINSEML
# Procedure: as §1, §2
# human CB2 receptor [5] = molecular target: T4, human CB2 receptor (Homo sapiens, UniProt P34972); test: biochemical; format: binding; details: [3H]CP55,940 0.1 nM, CHO cell membranes; read-out: Ki ± SEM Human CB2
# T4 construct: expressed in transfected cells; host or cells: CHO cells (membrane preparations)
# human CB1 receptor [6] = molecular target: T1, human CB1 receptor; test: cAMP accumulation assay, CHO cells stably expressing CB1; format: cell-based; details: for EC50: forskolin 10 µM, read-out: EC50 CB1 receptor activation, cAMP accumulation; for CB1 receptor activation in cAMP accumulation assay (in words): compound at 10 µM, normalized to CP55,940 (1 µM)
# Procedure: (§3) cAMP accumulation assays were performed also as previously described. Briefly, CHO cells stably expressing the respective human CB receptor subtype CB1 or CB2 were seeded overnight. […] After incubation for 15 min the buffer was removed, and the cells were lyzed. The amount of cAMP was determined in a radioligand binding assay by incubating 50 µL of the cell lysate with 3 nM [^3H]cAMP in the presence of protein preparations from bovine adrenal glands (cAMP binding protein). Bound and unbound radioligand were separated by rapid filtration through GF/B filters, and radioactivity was determined by liquid scintillation counting. To test for antagonistic activity, test compounds were added to Hank’s buffered salt solution (HBSS) containing 10% dimethyl sulfoxide (DMSO), 10 min after the application of Ro-20-1724, and the mixture was incubated for 20 min at 37 °C.
# (§4) As a next step, we investigated the compounds in cAMP accumulation assays, to obtain information on their functionality (Fig. 3). CB receptors are Gi protein-coupled and thus reduce the levels of cAMP in the cells upon activation.
# human CB2 receptor [7] = molecular target: T4, human CB2 receptor; test: cAMP accumulation assay, CHO cells stably expressing CB2; format: cell-based; details: for CB2 receptor activation in cAMP accumulation assay (in words): compound at 10 µM, normalized to CP55,940 (1 µM)
# Procedure: as §3, §4
# CB2 receptor [8] = details: membrane potential assay, cited from earlier work
# CB1 receptor [9] = details: membrane potential assay, cited from earlier work
# CB2 receptor [10] = molecular target: CB2 receptor; set-up: method as in Bowden et al. [43]; details: HTRF cAMP accumulation; ref Bowden et al. [43]; cited from earlier work
# CB2 receptor [11] = molecular target: CB2 receptor; set-up: method as in Wiley et al. [41]; details: versus 0.62 nM [3H]CP55,940; ref Wiley et al. [41]; cited from earlier work
# CB1 receptor [12] = molecular target: CB1 receptor; set-up: method as in Wiley et al. [41]; details: versus 0.62 nM [3H]CP55,940; ref Wiley et al. [41]; cited from earlier work
# [13] = agonist mode, read-out: Human GPR55 EC50
# [14] = antagonist mode versus lysophosphatidylinositol (LPI, 1 µM), read-out: Human GPR55 IC50
# [15] = agonist mode, read-out: Human GPR18 EC50
# T1 sequence (P21554 whole entry): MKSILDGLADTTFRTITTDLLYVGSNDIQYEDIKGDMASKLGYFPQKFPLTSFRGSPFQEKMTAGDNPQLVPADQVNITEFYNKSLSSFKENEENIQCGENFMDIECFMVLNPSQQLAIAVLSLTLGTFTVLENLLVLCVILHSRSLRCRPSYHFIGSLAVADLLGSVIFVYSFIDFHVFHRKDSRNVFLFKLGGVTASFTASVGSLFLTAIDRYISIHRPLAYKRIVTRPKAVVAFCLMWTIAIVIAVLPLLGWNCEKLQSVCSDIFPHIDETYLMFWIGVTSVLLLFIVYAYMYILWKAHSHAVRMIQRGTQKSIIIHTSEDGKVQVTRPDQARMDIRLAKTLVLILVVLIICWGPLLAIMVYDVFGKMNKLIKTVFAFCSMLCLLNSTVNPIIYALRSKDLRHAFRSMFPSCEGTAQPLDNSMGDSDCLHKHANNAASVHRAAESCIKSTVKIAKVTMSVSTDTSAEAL
# T2 sequence (Q9Y2T6 whole entry): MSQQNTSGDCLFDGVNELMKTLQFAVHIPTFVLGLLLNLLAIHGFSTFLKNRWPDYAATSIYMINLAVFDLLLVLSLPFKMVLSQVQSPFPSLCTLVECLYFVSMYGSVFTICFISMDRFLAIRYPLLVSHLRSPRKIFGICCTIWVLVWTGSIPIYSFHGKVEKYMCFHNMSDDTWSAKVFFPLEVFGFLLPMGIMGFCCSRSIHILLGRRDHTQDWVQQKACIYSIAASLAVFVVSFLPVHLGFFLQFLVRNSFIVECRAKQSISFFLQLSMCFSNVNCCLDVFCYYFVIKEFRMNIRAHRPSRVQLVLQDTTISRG
# T4 sequence (P34972 whole entry): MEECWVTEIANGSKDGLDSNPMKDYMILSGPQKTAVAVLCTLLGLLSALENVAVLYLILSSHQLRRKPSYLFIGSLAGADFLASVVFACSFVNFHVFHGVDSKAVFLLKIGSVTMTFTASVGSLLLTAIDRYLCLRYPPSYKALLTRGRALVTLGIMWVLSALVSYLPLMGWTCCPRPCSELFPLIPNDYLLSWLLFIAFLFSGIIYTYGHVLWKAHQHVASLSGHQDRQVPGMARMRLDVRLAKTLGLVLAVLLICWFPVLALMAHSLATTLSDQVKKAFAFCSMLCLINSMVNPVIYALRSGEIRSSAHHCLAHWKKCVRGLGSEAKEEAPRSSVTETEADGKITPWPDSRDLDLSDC
Structure (SMILES),Ki (human CB1 receptor [3]) [µM],EC50 (human GPR55) [µM],IC50 (human GPR55) [µM],Human GPR55 % activation (human GPR55; agonist mode) [%],EC50 (human GPR18) [µM],IC50 (human GPR18) [µM],Human GPR18 % activation (human GPR18; agonist mode),Ki (human CB2 receptor [5]) [µM],Human GPR55 % inhibition (human GPR55) [%],Human GPR18 % inhibition (human GPR18; antagonist mode),other results
"Cc1ccc(Cn2nc(C(=O)N[C@@H]3C(C)(C)[C@@H]4CC[C@@]3(C)C4)cc2-c2ccc(Cl)c(C)c2)cc1 [compound 44, SR-144,528]",,,,,,,,,,,Ki (CB1 receptor [1]): 0.437 ± 0.033 µM; function at CB2 (in words) (CB2 receptor [2]): antagonist
"CC(C)[C@H](NC(=O)c1nn(Cc2ccccc2F)c2ccccc12)C(N)=O [compound 19, AB-FUBINACA (2-F-benzyl-isomer)]",0.00691 ± 0.00342,> 10,> 10,15,> 10,> 10,11%,0.025 ± 0.0061,,,Ki (CB1 receptor [4]): 0.00469 µM
"O=C(c1ccc2c(c1)c1ccccc1n2CCCCCF)c1cccc2ccccc12 [compound 40, EG-2201]",0.0224 ± 0.0128,,,,,,3%,0.00436 ± 0.00291,3,7%,"EC50 (human GPR55; [13]): > 10 µM; IC50 (human GPR55; [14]): > 10 µM; EC50 (human GPR18; [15]): > 10 µM; IC50 (human GPR18; antagonist mode, read-out: Human GPR18 IC50): > 10 µM; Emax (human CB1 receptor [6]; CHO, read-out: efficacy at CB1 compared to maximum response of CP55,940, cAMP accumulation): 94%; functional behaviour at CB1 receptor (in words) (human CB1 receptor [6]; cAMP accumulation): agonistic behavior; EC50 (human CB1 receptor [6]): 0.0156 µM; Emax (human CB2 receptor [7]; CHO, read-out: efficacy at CB2 compared to maximum response of CP55,940, cAMP accumulation): 77%; functional behaviour at CB2 receptor (in words) (human CB2 receptor [7]; cAMP accumulation): agonistic behavior; EC50 (human CB2 receptor [7]; forskolin 10 µM, read-out: EC50 CB2 receptor activation, cAMP accumulation): 0.00565 µM"
"NC(=O)[C@H](Cc1ccccc1)NC(=O)c1nn(Cc2ccc(F)cc2)c2ccccc12 [compound 29, APP-FUBINACA]",0.0563 ± 0.0198,> 10,> 10,26,> 10,> 10,4%,0.0581 ± 0.0173,,21%,Ki (CB1 receptor [4]): 0.0476 µM; CB1 receptor activation in cAMP accumulation assay (in words) (human CB1 receptor [6]): partial activation; CB2 receptor activation in cAMP accumulation assay (in words) (human CB2 receptor [7]): full agonists
"CC1=CC[C@@H]2[C@@H](C1)c1c(O)cc(C(C)(C)CCCCCCBr)cc1OC2(C)C [compound 45, AM11542]",,,,,,,,,,,Ki (CB1 receptor [1]; co-crystallized agonist): 0.00011 µM
"CC(C)[C@H](NC(=O)c1nn(Cc2cccc(F)c2)c2ccccc12)C(N)=O [compound 18, AB-FUBINACA (3-F-benzyl-isomer)]",0.0126 ± 0.0007,> 10,> 10,11,> 10,> 10,> 10 (10%),0.0522 ± 0.0102,,,Ki (CB1 receptor [4]): 0.0511 µM
COC(=O)[C@@H](NC(=O)c1nn(CC2CCCCC2)c2ccccc12)C(C)C [compound 10],0.000339 ± 7.3e-05,> 10,> 10,2,> 10,> 10,19%,0.000301 ± 9.2e-05,31,> 10 (10%),EC50 (CB2 receptor [8]; ref Banister et al. [38]): 0.029 µM; EC50 (CB1 receptor [9]; ref Banister et al. [38]): 0.0051 µM
"CCCCCn1cc(C(=O)c2cccc3ccccc23)c2ccccc21 [compound 3, JWH-018, reference compound]",0.00151 ± 0.00067,,,,,,,0.00224 ± 0.0012,,,Ki (CB1 receptor [1]): 0.009 µM; Ki (CB2 receptor [2]): 0.0029 µM
"CCCCCn1cc(C(=O)NC(C)(C)c2ccccc2)c2ccccc21 [compound 31, Cumyl-PICA]",0.00327 ± 0.00032,> 10,> 10,11,> 10,> 10,19%,0.024 ± 0.0088,3,,EC50 (CB2 receptor [10]): 0.013 µM; EC50 (CB2 receptor [8]; ref Longworth et al. [51]): 0.0582 µM; EC50 (CB1 receptor [9]; ref Longworth et al. [51]): 0.0042 µM
"COc1ccc(C(=O)c2c(C)n(CCN3CCOCC3)c3cc(I)ccc23)cc1 [compound 43, AM-630]",,,,,,,,,,,function at CB1 (in words) (CB1 receptor [1]): partial agonist; Ki (CB2 receptor [2]): 0.0312 ± 0.0124 µM; function at CB2 (in words) (CB2 receptor [2]): antagonist
NC(=O)[C@H](Cc1ccccc1)NC(=O)c1nn(CC2CCCCC2)c2ccccc12 [compound 30],0.00981 ± 0.00456,> 10,> 10,11,> 10,~10,5%,0.00439 ± 0.00059,9,57%,Ki (CB1 receptor [4]): 0.0475 µM
CC(C)[C@H](NC(=O)c1nn(CC2CCCCC2)c2ccccc12)C(N)=O [compound 20],0.00172 ± 0.00014,> 10,> 10,8,> 10,> 10,13%,0.00191 ± 0.0002,,11%,Ki (CB2 receptor [11]): 0.00045 µM; Ki (CB1 receptor [12]): 0.00078 µM
"COC(=O)C(NC(=O)c1ccc2c(c1)c1ccccc1n2CC1CCCCC1)C(C)(C)C (stereo not drawn) [compound 41, MDMB-CHMCZCA]",0.00575 ± 0.00165,,,,,,,0.00667 ± 0.0014,25,,"EC50 (human GPR55; [13]): > 10 µM; IC50 (human GPR55; [14]): > 10 µM; EC50 (human GPR18; [15]): > 10 µM; IC50 (human GPR18; extrapolated value, full curve could not be determined due to limited solubility, read-out: Human GPR18 IC50 (extrapolated)): 9.66 ± 1.2 µM; functional behaviour at CB1 receptor (in words) (human CB1 receptor [6]; cAMP accumulation): full efficacy; also recorded: agonist; EC50 (human CB1 receptor [6]): 0.12 µM; functional behaviour at CB2 receptor (in words) (human CB2 receptor [7]; cAMP accumulation): completely lacked CB2 receptor activation; also recorded: antagonist; CB2 receptor activation in cAMP accumulation assay (in words) (human CB2 receptor [7]): failed to evoke an agonistic response; IC50 (human CB2 receptor [7]; read-out: IC50 inhibition of CB2 receptor activation, cAMP accumulation): 0.807 ± 0.137 µM"
"COC(=O)[C@@H](NC(=O)c1nn(CCCCCF)c2ccccc12)C(C)C [compound 8, 5F-AMB]",0.00113 ± 0.00048,> 10,> 10,14,> 10,> 10,1%,0.00138 ± 0.00022,,,EC50 (CB2 receptor [8]; ref Banister et al. [38]): 0.01 µM; EC50 (CB1 receptor [9]; ref Banister et al. [38]): 0.0019 µM
"COC(=O)[C@@H](NC(=O)c1nn(Cc2ccc(F)cc2)c2ccccc12)C(C)C [compound 9, FUB-AMB]",0.000387 ± 0.000135,> 10,> 10,4,> 10,> 10,,0.000536 ± 0.000115,17,11%,EC50 (CB2 receptor [8]; ref Banister et al. [38]): 0.018 µM; EC50 (CB1 receptor [9]; ref Banister et al. [38]): 0.002 µM
"COC(=O)[C@@H](NC(=O)c1nn(CCCCCF)c2ccccc12)C(C)(C)C [compound 11, 5F-ADB]",0.0233 ± 0.0102,> 10,> 10,0,> 10,> 10,> 10 (10%),0.00599 ± 0.00247,6,,EC50 (CB2 receptor [8]; ref Banister et al. [38]): 0.0075 µM; CB1 receptor activation in cAMP accumulation assay (in words) (human CB1 receptor [6]): partial activation; EC50 (CB1 receptor [9]; ref Banister et al. [38]): 0.00059 µM; CB2 receptor activation in cAMP accumulation assay (in words) (human CB2 receptor [7]): full agonists
